Here are results for 9 compounds from patent US4886813A, “Proline derivatives” (Otsuka Pharmaceutical Factory, Inc., priority 1985, dated 1989).

The structures appear in SMILES notation.

For the experiment, the target named is T1, angiotensin-converting enzyme (ACE) (Oryctolagus cuniculus, UniProt P12822).
T1 construct: enzyme solution prepared from rabbit lung acetone powder; tissue Sigma Chemical Co., Ltd., U.S.A; host or cells: rabbit lung (acetone powder)
T1 sequence (P12822 34-1310): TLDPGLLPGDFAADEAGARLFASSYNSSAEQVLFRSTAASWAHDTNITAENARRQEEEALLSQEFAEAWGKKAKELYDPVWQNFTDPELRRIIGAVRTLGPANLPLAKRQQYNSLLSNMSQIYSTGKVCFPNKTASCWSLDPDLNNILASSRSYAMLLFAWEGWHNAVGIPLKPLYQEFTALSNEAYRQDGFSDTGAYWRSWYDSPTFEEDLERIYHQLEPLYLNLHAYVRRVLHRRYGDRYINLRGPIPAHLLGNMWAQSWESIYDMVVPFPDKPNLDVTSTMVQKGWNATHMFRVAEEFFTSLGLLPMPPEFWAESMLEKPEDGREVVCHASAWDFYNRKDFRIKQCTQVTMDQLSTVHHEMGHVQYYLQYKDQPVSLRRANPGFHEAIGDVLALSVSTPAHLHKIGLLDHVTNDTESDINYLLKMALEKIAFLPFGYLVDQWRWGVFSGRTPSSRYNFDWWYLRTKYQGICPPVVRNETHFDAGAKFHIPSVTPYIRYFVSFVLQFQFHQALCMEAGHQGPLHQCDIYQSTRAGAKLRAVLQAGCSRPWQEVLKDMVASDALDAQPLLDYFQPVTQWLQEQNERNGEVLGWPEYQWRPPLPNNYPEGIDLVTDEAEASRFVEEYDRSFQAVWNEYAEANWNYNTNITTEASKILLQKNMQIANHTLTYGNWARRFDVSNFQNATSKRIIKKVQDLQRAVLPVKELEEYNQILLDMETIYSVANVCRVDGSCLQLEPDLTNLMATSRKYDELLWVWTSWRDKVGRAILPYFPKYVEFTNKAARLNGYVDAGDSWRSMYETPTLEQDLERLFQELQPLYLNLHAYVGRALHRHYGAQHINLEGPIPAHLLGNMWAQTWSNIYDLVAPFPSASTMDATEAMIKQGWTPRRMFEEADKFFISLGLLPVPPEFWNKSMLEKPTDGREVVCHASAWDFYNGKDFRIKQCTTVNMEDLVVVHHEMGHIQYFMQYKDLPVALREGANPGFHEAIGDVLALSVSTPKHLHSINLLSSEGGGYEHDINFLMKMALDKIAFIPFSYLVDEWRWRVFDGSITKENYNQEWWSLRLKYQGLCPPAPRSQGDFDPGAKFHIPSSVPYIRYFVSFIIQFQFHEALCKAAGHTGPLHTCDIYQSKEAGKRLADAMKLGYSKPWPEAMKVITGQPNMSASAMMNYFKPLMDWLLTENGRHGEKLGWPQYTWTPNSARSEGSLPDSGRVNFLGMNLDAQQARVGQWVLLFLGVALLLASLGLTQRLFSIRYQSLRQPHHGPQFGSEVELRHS
Briefly: Inhibitory activity against angiotensin-converting enzyme (ACE). It is filed as biochemical. The note with it: enzyme from rabbit lung acetone powder; substrate hippuryl-histidyl-leucine; 37° C.; preincubation 10 minutes, reaction 45 minutes. On the procedure: A 100 μl quantity of an enzyme solution prepared from rabbit lung acetone powder (product of Sigma Chemical Co., Ltd., U.S.A.) was mixed with 100 μl of a sample solution. The mixture was gently shaken at 37° C. for 10 minutes. To the reaction mixture was added 100 μl of a solution containing 6.69 mM of hippuryl-histidyl-lecuine (product of Peptide Institute, Inc., Japan) as a substrate. The mixture was reacted at 37° C. for 45 minutes while being shaken. The reaction was terminated by addition of 200 μl of a 1N sulfuric acid to the reaction mixture. Sodium chloride (saturation amount) and diethyl ether (2 ml) were added to the reaction mixture to extract the hippuric acid formed by the reaction. The resulting mixture was vigorously shaken for 15 minutes and centrifuged at 2000 r.p.m. for 5 minutes. A 1.5 ml quantity of the ether layer was separated. After the solvent was distilled off, the residue was redissolved in 1.5 ml of distilled water and the absorbance of 228 nm was measured. A control was prepared by repeating the same procedure as above except that […] of distilled water was used in place of the sample solution.
The inhibitory activity was calculated by deducting the absorbance value of the residue formed by addition of the sample solution from that of the control and the resulting value was divided by the absorbance value of the control and multipled by 100, thereby giving a percent inhibition. The inhibitory activity was expressed as IC50, i.e., the concentration of the same sample solution in the reaction mixture in which concentration 50% inhibition is achieved.
In the case of `CC(N[C@@H](CSC1CCCC1)C(=O)O)C(=O)N1CCC[C@H]1C(=O)O` (stereo partly drawn) [Compound 3], the IC50 (commonly the concentration that inhibits the measured activity by half) stood at 1.02 nM.

The compound `CC(N[C@@H](CSCC(=O)NCc1ccccc1)C(=O)O)C(=O)N1CCC[C@H]1C(=O)O` (stereo partly drawn) [Compound 5] showed an IC50 of 342 nM.

For `CCCCCCCSC[C@H](NC(C)C(=O)N1CCC[C@H]1C(=O)NC(Cc1ccccc1)C(=O)O)C(=O)O` (stereo partly drawn) [Compound 7], the IC50 turned out to be 24.1 nM.

For the compound `CC(N[C@@H](CSCC(=O)N1CCCCC1)C(=O)O)C(=O)N1CCC[C@H]1C(=O)O` (stereo partly drawn) [Compound 6], the IC50 was found to be 443 nM.

With `CC(N[C@@H](CSC1(C)CCCCC1)C(=O)O)C(=O)N1CCC[C@H]1C(=O)O` (stereo partly drawn), it took 5.21 nM to reach half-maximal inhibition (IC50).

As to `CC(N[C@@H](CSCC(=O)NC1CCCC1)C(=O)O)C(=O)N1CCC[C@H]1C(=O)O` (stereo partly drawn) [Compound 4], half-maximal inhibition (IC50) was put at 61.1 nM.

`CCCCCCCSC[C@H](NC(C)C(=O)N1CCC[C@H]1C(=O)NC(C)C(=O)O)C(=O)O` (stereo partly drawn) [Compound 8] registered an IC50 of 56.3 nM. This IC50 and that of the compound before are within 1.5-fold of each other.

For `CCCCCCCSC[C@H](NC(C)C(=O)N1CCC[C@H]1C(=O)NC(C(=O)O)C(C)C)C(=O)O` (stereo partly drawn) [Compound 9], it took 33.5 nM to reach half-maximal inhibition (IC50).

Turning to `CC(N[C@@H](CSC1Cc2ccccc2C1)C(=O)O)C(=O)N1CCC[C@H]1C(=O)O` (stereo partly drawn) [Compound 2], the IC50 amounted to 0.687 nM.
